Our source for the MIC, half-life and bioavailability values is patent US6392082B1, “Triazole derivatives having antifungal activity” (Sankyo Company, Limited, priority 1999, dated 2002).

Data set [1] deals with Canadida albicans TIMM 3164. Kind of data set: In vitro antifungal activity, MIC by broth microdilution (Candida species). The data set is classed as cell-based. The settings on record: TIMM3164, lowest concentration causing at least 80% growth inhibition, RPMI1640 pH 7.0, 35° C., 24-72 hours, read-out: MIC value C.a. (2). As for the experimental part:
(§1) The antifungal activities of test compounds were assessed according to their minimum inhibitory concentrations (MICs) which were measured by the methods described below.
(§2) 1(i) Measurement Method for Candida Species
(§3) A modified version of the procedure described in Japanese Journal of Medical Mycology, 36, 62 (1995) was used, MICs being determined by the broth microdilution method. Each test compound was dissolved in dimethyl sulfoxide (DMSO). Serial two-fold dilutions of each compound were prepared with DMSO and then final dilutions were prepared with RPMI1640 medium (product of Dainippon Pharmaceutical Co., Ltd.) which was buffered to pH 7.0 with 0.165 M 3-(morpholino)propanesulfonic acid (MOPS). […] Colonies of the test fungi were suspended in physiological saline followed by adjustment to 5.0×10^2 to 2.5×10^3 cells/ml with RPM11640 medium which was buffered to pH 7.0 with 0.165 M MOPS. 100 μl of the fungal suspension were added to each of the wells of microtitre plates and then 100 μl of each diluted test compound were added to one of said wells and mixed with the fungal suspension therein, before incubating at 35° C. for 24-72 hours. […] The MICs were defined as the lowest compound concentrations causing at least 80% growth inhibition when compared with the control.
c) C.a. (2): Canadida albicans TIMM 3164.

Data set [2] is described as follows: Acid stability test (half-life in 0.01 N HCl). The data set is classed as physicochemical. The settings on record: 0.01 N HCl (pH 2.0), initial 50 μg/ml, 37° C., HPLC, read-out: t1/2, stability in acidic solution. As for the experimental part: A small amount of the solution was taken from the reaction solution at predetermined time intervals and the reaction was stopped in these samples by neutralizing with an aqueous sodium hydroxide solution. Quantitative determination of the residual rate of the test compound in the solution was determined by HPLC.
The half-life (t½) of the test compound in 0.01 N HCl was determined according to the following equation using the degradation rate constant kdeg which was determined by semi-logarithmic regression analysis of the residual rate in the solution.

Data set [3] is described as follows: Oral absorption rate (bioavailability) in SD rats. The data set is classed as in vivo. The settings on record: rat, blood; fasted SD rats; oral 20 mg/kg vs intravenous 2 mg/kg in PEG 400; AUCpo(0-48 h)/AUCiv(0-∞), dose-corrected; read-out: BA (bioavailability). As to the method:
A test compound in polyethylene glycol 400 (PEG 400) was administered either orally (4 animals) or intravenously into the caudal vein (3 animals) of SD rats (age 7 weeks) which had fasted overnight. The oral dose of the test compound was 20 mg per kg of rat body weight. The intravenous dose of the test compound injected into the caudal vein was 2 mg per kg of rat body weight. The amount of PEG 400 used was 1 ml per kg of rat body weight for both oral and intravenous administration. The bioavailability (BA) values were calculated according to the following equation using the integrated values of the blood concentration of the test compound up to 48 hours after oral administration [AUCpo(0-48 h)], and the integrated values of the blood concentration extrapolated from 0 to infinite time after intravenous administration into the caudal vein [AUCiv(0-∞)].
BA(%)={[(AUCpo(0-48))/(dosepo)]/[(AUCiv(0-∞))/(doseiv)]}×100
The larger the value of BA, the higher the oral absorption rate. The results for the compound of formula (Ib) of the present invention and those for Comparative Compounds A, B and C are shove in Table 3.

Data set [4] relates to Cryptococcus neoformans TIMM 0362. Kind of data set: In vitro antifungal activity, MIC by broth microdilution (Cryptococcus neoformans). The data set is classed as cell-based. The settings on record: TIMM0362, lowest concentration causing at least 50% growth inhibition (absorbance 485 nm), yeast nitrogen base pH 7.0, 35° C., 48-72 hours, read-out: MIC value C.n. As to the method: as §1
1(ii) Measurement Method for Cryptococcus neoformans
A modified version of the Broth Dilution Antifuinal Susceptibility Testing of Yeast; Approved Standard M27-A (Vol. 17, No. 9, June 1997, NCCLS) was used, MICs being determined by the broth microdilution method. Each test compound was dissolved in DMSO. Serial two-fold dilutions of each compound were prepared with DMSO and final dilutions were prepared with yeast nitrogen base medium (product of Difco Laboratories) buffered to pH 7.0 with 0.165 M MOPS. […] Colonies of the test fungi were suspended in physiological saline followed by adjustment to 5.0×10^3 to 2.5×10^4 cells/ml with yeast nitrogen base medium buffered to pH 7.0 with 0.165 M MOPS. 100 μl of the fungal suspension were added to each of the wells of microtitre plates and then 100 μl of each diluted test compound were added to one of said wells and mixed with the fungal suspension therein, before incubating at 35° C. for 48-72 hours. […] The MICs were defined as the lowest compound concentrations causing at least 50% growth inhibition when compared with the control as measured by light absorbance at 485 nm.
e) C.n.: Cryptococcus neoformans TIMM 0362.
In general terms: Dilution methods test growth across graded concentrations, often in twofold steps.

In data set [5] the test system is Canadida albicans ATCC 64550. Kind of data set: In vitro antifungal activity, MIC by broth microdilution (Candida species). The settings on record: ATCC64550, lowest concentration causing at least 80% growth inhibition, RPMI1640 pH 7.0, 35° C., 24-72 hours, read-out: MIC value C.a. (1). The data set is classed as cell-based. As for the experimental part:
as §1, §2, §3
b) C.a. (1): Canadida albicans ATCC 64550.

The subject of data set [6] is Aspergillus fumigatus SANK 10569. In words: In vitro antifungal activity, MIC by broth microdilution (Aspergillus species). The data set is classed as cell-based. The settings on record: SANK10569, lowest concentration causing at least 80% growth inhibition, RPMI1640 pH 7.0, 30° C., 24-72 hours, read-out: MIC value A.f. As to the method: The antifungal activities of test compounds were assessed according to their minimum inhibitory concentrations (MICs) which were measured by the methods described below. 1(iii) Measurement Method for Aspergillus Species A modified version of the protocol in Antimicrob. Agents Chemother., 39, 314 (1995) was used, MICs being determined by the broth microdilution method. Test compounds were dissolved in dimethyl sulfoxide (DMSO). Serial two-fold dilutions of each compound were prepared with DMSO and then final dilutions were prepared with RPMI1640 medium (product of Dainippon Pharmaceutical Co., Ltd.) buffered to pH 7.0 with 0.165 M MOPS.

In data set [7] the test system is Canadida albicans TIMM 3165. Kind of data set: In vitro antifungal activity, MIC by broth microdilution (Candida species). The settings on record: TIMM3165, lowest concentration causing at least 80% growth inhibition, RPMI1640 pH 7.0, 35° C., 24-72 hours, read-out: MIC value C.a. (3). The data set is classed as cell-based. As to the method: as §1, §2, §3
d) C.a. (3): Canadida albicans TIMM 3165.

Where [8] appears, read: 0.01 N hydrochloric acid with 30% acetonitrile.

Values after ≈ are worked out from the molar mass of the structure shown. Read-outs that look alike come from different tables or passages of the source.

One may read the MIC as the lowest concentration that inhibits growth of the organism. In the case of `C[C@@H](S[C@H]1CO[C@H](/C=C/C=C/c2ccc(C#N)cc2F)OC1)[C@](O)(Cn1cncn1)c1ccc(F)cc1F` [Compound (Ib), (2R,3R)-3-[[trans-2-[(1E,3E)-4-(4-Cyano-2-fluorophenyl)-1,3-butadien-1-yl]-1,3-dioxan-5-yl]thio]-2-(2,4-difluorophenyl)-1-(1H-1,2,4-triazol-1-yl)-2-butanol], the minimum inhibitory concentration (MIC) was not above 0.008 µg/mL in data set [1]; not above 0.008 µg/mL in data set [4]; 0.25 µg/mL (≈ 0.461 µM) in data set [5]; 0.031 µg/mL (≈ 0.0571 µM) in data set [6]; 0.063 µg/mL (≈ 0.116 µM) in data set [7]. Also, the half-life at 50 μg/ml in data set [2] (buffer, 30% acetonitrile) amounted to 6.4 min. Also, the bioavailability in data set [3] was 123%.
For `C[C@@H](S[C@H]1CO[C@H](/C=C/C=C/c2ccc(F)cc2F)OC1)[C@](O)(Cn1cncn1)c1ccc(F)cc1F` [Comparative Compound (B)], the MIC in data set [1] was 0.031 to 0.063 µg/mL (≈ 0.0579 to 0.118 µM); in data set [4], not above 0.008 µg/mL; in data set [5] it was 0.5 µg/mL (≈ 0.934 µM); in data set [6], 0.125 µg/mL (≈ 0.233 µM); in data set [7], 0.125 to 0.25 µg/mL (≈ 0.233 to 0.467 µM). In data set [2] (setting [8]), the half-life at 50 μg/ml was determined as 1.54 min. In addition, the bioavailability in data set [3] was 6.24%.
Consider `C[C@@H](S[C@H]1CO[C@H](/C=C/C=C/c2ccc(C#N)cc2)OC1)[C@](O)(Cn1cncn1)c1ccc(F)cc1F` [Comparative Compound (A), (2R,3R)-3-[[trans-2-[(1E,3E)-4-(4-Cyanophenyl)-1,3-butadien-1-yl]-1,3-dioxan-5-yl]thio]-2-(2,4-difluorophenyl)-1-(1H-1,2,4-triazol-1yl)-2-butanol], for which the MIC in data set [1] was 0.016 µg/mL (≈ 0.0305 µM); in data set [4], 0.016 µg/mL (≈ 0.0305 µM); in data set [5], 0.5 to 1 µg/mL (≈ 0.953 to 1.91 µM); in data set [6], 0.031 µg/mL (≈ 0.0591 µM); in data set [7], 0.125 to 0.25 µg/mL (≈ 0.238 to 0.477 µM). Moreover, the half-life at 50 μg/ml in data set [2] (setting [8]) stood at 3.12 min. Besides, the bioavailability in data set [3] came to 50.7%.
Consider `CC(C[C@H]1CO[C@H](/C=C/C=C/c2ccc(C#N)cc2F)OC1)C(O)(Cn1cncn1)c1ccc(F)cc1F` (some centres unmarked) [Comparative Compound (C)], for which the half-life at 50 μg/ml in data set [2] (setting [8]) is 2.42 min. The bioavailability in data set [3] was found to be 57.8%.
